US20210386367A1, “DEVICES AND SYSTEMS FOR GASTROINTESTINAL MICROBIOME DETECTION AND MANIPULATION” (Progenity, Inc., priority 2018, published 2021)

Columns and labels:
Assay type in all cases: cell-based
[1] = test system: Viridans group Streptococci clinical isolates; test: MIC distribution against clinical isolates; conditions: 15 Viridans group Streptococci isolates
Method in brief: (§1)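 MIC is the lowest agent concentration preventing growth, determined by broth or agar dilution with serial compound dilutions and incubation under appropriate conditions (e.g., overnight at 37° C.). MIC90 is the concentration inhibiting ≥90% of isolates in the test population.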

[2] = test system: Streptococcus pyogenes clinical isolates; test: MIC distribution against clinical isolates; conditions: 19 S. pyogenes isolates
Method in brief: as §1

[3] = test system: Viridans group Streptococcus; test: Broth microdilution MIC, 15 clinical isolates; conditions: 15 Viridans group Streptococci clinical isolates
Method in brief: (§2)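 CLSI broth microdilution in cation-adjusted Mueller Hinton broth, with 3% lysed horse blood added for streptococci. Two-fold dilutions, inoculum ~5×10^5 CFU/mL, 35° C for 16-24 hr in ambient air (streptococci with CO2 planchets). MIC = lowest concentration inhibiting visible growth.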

[4] = test system: Staphylococcus aureus clinical isolates; test: MIC distribution against clinical isolates; conditions: 50 S. aureus isolates
[5] = test system: Enterococcus faecalis clinical isolates; test: MIC distribution against clinical isolates; conditions: 50 E. faecalis isolates
[6] = test system: Enterococcus faecalis; test: Broth microdilution MIC, 50 clinical isolates
Method in brief: as §2

[7] = test system: Staphylococcus aureus; test: Broth microdilution MIC, 50 clinical isolates (28 MRSA)
Method in brief: as §2

Substance: piperacillin/tazobactam [piperacillin-tazobactam]
- Cumulative percentage of isolates inhibited at MIC ([1]; MIC 0.015 μg/mL): 6.7%
- Number of test isolates at MIC ([1]; MIC 0.015 μg/mL): 1
- Cumulative percentage of isolates inhibited at MIC ([1]; MIC 0.03 μg/mL): 26.7%
- Number of test isolates at MIC ([1]; MIC 0.03 μg/mL): 3
- Cumulative percentage of isolates inhibited at MIC ([1]; MIC 0.06 μg/mL): 46.7%
- Number of test isolates at MIC ([1]; MIC 0.06 μg/mL): 3
- Cumulative percentage of isolates inhibited at MIC ([1]; MIC 1 μg/mL): 66.7%
- Number of test isolates at MIC ([1]; MIC 1 μg/mL): 1
- Cumulative percentage of isolates inhibited at MIC ([1]; MIC 2 μg/mL): 80.0%
- Number of test isolates at MIC ([1]; MIC 2 μg/mL): 2
- Cumulative percentage of isolates inhibited at MIC ([1]; MIC 4 μg/mL): 100.0%
- Number of test isolates at MIC ([1]; MIC 4 μg/mL): 3
- Number of test isolates at MIC ([1]; MIC […]): 1
- Cumulative percentage of isolates inhibited at MIC ([2]; MIC 0.03 μg/mL): 21.1%
- Number of test isolates at MIC ([2]; MIC 0.03 μg/mL): 4
- Cumulative percentage of isolates inhibited at MIC ([2]; MIC 0.06 μg/mL): 89.5%
- Number of test isolates at MIC ([2]; MIC 0.06 μg/mL): 13
- Number of test isolates at MIC ([2]; MIC […]): 1
- MIC50 [3]: 0.12 µg/mL
- MIC90 [3]: 4 µg/mL
- MIC range [3]: 0.015 to 4 µg/mL
- Mode ([3]; modal MIC): 0.06 µg/mL
- Cumulative percentage of isolates inhibited at MIC ([4]; MIC 0.5 μg/mL): 6.0%
- Number of test isolates at MIC ([4]; MIC 0.5 μg/mL): 3
- Cumulative percentage of isolates inhibited at MIC ([4]; MIC 1 μg/mL): 24.0%
- Number of test isolates at MIC ([4]; MIC 1 μg/mL): 9
- Cumulative percentage of isolates inhibited at MIC ([4]; MIC 2 μg/mL): 42.0%
- Number of test isolates at MIC ([4]; MIC 2 μg/mL): 9
- Cumulative percentage of isolates inhibited at MIC ([4]; MIC 4 μg/mL): 46.0%
- Number of test isolates at MIC ([4]; MIC 4 μg/mL): 2
- Cumulative percentage of isolates inhibited at MIC ([4]; MIC 8 μg/mL): 52.0%
- Number of test isolates at MIC ([4]; MIC 8 μg/mL): 3
- Cumulative percentage of isolates inhibited at MIC ([4]; MIC 16 μg/mL): 54.0%
- Number of test isolates at MIC ([4]; MIC 16 μg/mL): 1
- Cumulative percentage of isolates inhibited at MIC ([4]; MIC 32 μg/mL): 66.0%
- Number of test isolates at MIC ([4]; MIC 32 μg/mL): 6
- Cumulative percentage of isolates inhibited at MIC ([4]; MIC 64 μg/mL): 92.0%
- Number of test isolates at MIC ([4]; MIC 64 μg/mL): 13
- Cumulative percentage of isolates inhibited at MIC ([4]; MIC >64 μg/mL): 100.0%
- Number of test isolates at MIC ([4]; MIC >64 μg/mL): 4
- Cumulative percentage of isolates inhibited at MIC ([5]; MIC 1 μg/mL): 10.0%
- Number of test isolates at MIC ([5]; MIC 1 μg/mL): 4
- Cumulative percentage of isolates inhibited at MIC ([5]; MIC 2 μg/mL): 32.0%
- Number of test isolates at MIC ([5]; MIC 2 μg/mL): 11
- Cumulative percentage of isolates inhibited at MIC ([5]; MIC 4 μg/mL): 70.0%
- Number of test isolates at MIC ([5]; MIC 4 μg/mL): 19
- Cumulative percentage of isolates inhibited at MIC ([5]; MIC 8 μg/mL): 90.0%
- Number of test isolates at MIC ([5]; MIC 8 μg/mL): 10
- Cumulative percentage of isolates inhibited at MIC ([5]; MIC 16 μg/mL): 98.0%
- Number of test isolates at MIC ([5]; MIC 16 μg/mL): 4
- Cumulative percentage of isolates inhibited at MIC ([5]; MIC >64 μg/mL): 100.0%
- Number of test isolates at MIC ([5]; MIC >64 μg/mL): 1
- Cumulative percentage of isolates inhibited at MIC ([5]; MIC […]): 2.0%
- Number of test isolates at MIC ([5]; MIC […]): 1
- MIC50 [6]: 4 µg/mL
- MIC90 [6]: 8 µg/mL
- Mode [6]: 4 µg/mL
- MIC50 [7]: 8 µg/mL
- MIC90 [7]: 64 µg/mL
- Mode [7]: 64 µg/mL
- % R ([7]; FDA breakpoints): 48% ^1
- % S ([7]; FDA breakpoints): 52% ^1
